According to patent US20060275333A1, “Composition with beads for treatment of contact dermatitis” (Humco Holding Group, Inc., priority 2005, published 2006):

Experiments:
IL-1α = IL-1α release from Epiderm artificial skin, ELISA of culture media; type: cell-based, human
Text: When urushiol is applied to human skin it can elicit the synthesis and release of several key inflammatory cytokines, including IL-1α, IL-1β, IL-6, and IL-8. Release of these cytokines also has been noted in cultured keratinocyte models after the application of urushiol. IL-1α and IL-6 are synthesized and stored in keratinocytes and have been identified as mediators of skin irritation and inflammation. Release of these two cytokines can be measured directly in tissue culture media by a calorimetric enzyme linked immunosorbent assay (ELISA). In such measurements, antibodies covalently linked to a solid support will bind any IL-1α or IL-6 present in spent culture media samples. […] Upon addition of an appropriate color substrate the acetylcholinesterase enzyme will generate a colored end product that can be measured spectrophotometrically. […]
The Epidermic tissue samples were stored at 2-8° C. until used. […] The collected culture media were stored at −75±5° C. until analyzed for IL-1α and IL-6 levels. The IL-1α and IL-6 levels were determined by comparison with a standard curve generated from samples having known concentrations of these two cytokines. […] Absorbance values for the test materials and untreated samples were then used to estimate the amount of cytokine present in each sample.

[1] = system: Epiderm normal human-derived epidermal keratinocytes; assay: MTT assay of tissue viability of Epiderm artificial skin; type: cell-based; conditions: after the 48-hour time period; untreated tissues = 100%; same test materials
Protocol: The efficacy of nonylphenol ethoxylate on urushiol-induced dermatitis was evaluated by ELISA and MTT techniques. The MTT evaluation was based on a technique first described in Mosmann, T., “Rapid calorimetric assay for cellular growth and survival: application to proliferation and cytotoxicity assays,” J. Immunol. Methods, Dec. 16, 1983, 65(1-2):55-63. The analysis is based on the compound [3-(4,5-dimethylthiazol-2-yl)-2,5-diphenyltetrazolium bromide], commonly referred to as MTT. As reported by Mosmann, mitochondrial dehydrogenase enzyme from viable cells can cleave the tetrazolium rings of the pale yellow MTT and form dark blue formazin crystals. The crystals cannot permeate cell membranes, and thus tend to accumulate within healthy cells. […] The formazin is extracted with isopropanol and measured spectrophotometrically. […]
Epidermal irritation often is associated with a loss of viable ketinocytes. Therefore, changes in tissue viability after exposure to urushiol and the test were assessed using the MTT assay described above. […] After the extraction, a 200 μl sample from each well of the isopropanol/MTT mixture was transferred to a 96-well plate and the absorbance of the sample was read at 540 nm with a plate reader using 200 μl of isopropanol as the blank.
The mean MTT absorbance value for the untreated tissues was calculated and used to represent 100% tissue viability. […]

IL-6 = IL-6 release from Epiderm artificial skin, ELISA of culture media; type: cell-based, human
Text: When urushiol is applied to human skin it can elicit the synthesis and release of several key inflammatory cytokines, including IL-1α, IL-1β, IL-6, and IL-8. Release of these cytokines also has been noted in cultured keratinocyte models after the application of urushiol. IL-1α and IL-6 are synthesized and stored in keratinocytes and have been identified as mediators of skin irritation and inflammation. Release of these two cytokines can be measured directly in tissue culture media by a calorimetric enzyme linked immunosorbent assay (ELISA). In such measurements, antibodies covalently linked to a solid support will bind any IL-1α or IL-6 present in spent culture media samples. A second antibody that is covalently attached to an acetylcholinesterase enzyme will in turn detect the bound cytokines. Upon addition of an appropriate color substrate the acetylcholinesterase enzyme will generate a colored end product that can be measured spectrophotometrically.
Testing of the invention herein was conducted using an artificial skin product designed for toxicity testing and sold under the name Epiderm® by Mat Tek Corporation of Ashland, Massachusetts. This artificial skin product consists of normal human-derived epidermal keratinocytes that have been cultured to form a multilayered, highly differentiated model of the human epidermis. […] Markers of mature epidermis specific differentiation such as profilaggrin, the K1/K10 cytokeratin pair, involucrin, and type I epidermal transglutaminase have been localized in this product. The product is also mitotically and metabolically active.
The Epidermic tissue samples were stored at 2-8° C. until used. The analyses were conducted with an ELISA test kit from Cayman Chemicals of Ann Arbor, Michigan, with all buffers and reagents being prepared according to the kit's instructions and allowed to come to room temperature. Prior to use, the tissues were removed from the agarose shipping tray and placed into a 6-well plate containing 1.0 ml of assay medium from the test kit, at 37±2° C. The tissues were allowed to incubate for one hour at 37±2° C. and 5±1% CO2. After this initial incubation, the assay medium was replaced with 1 ml of fresh medium at 37±2° C. […] The collected culture media were stored at −75±5° C. until analyzed for IL-1α and IL-6 levels. The IL-1α and IL-6 levels were determined by comparison with a standard curve generated from samples having known concentrations of these two cytokines. […] Absorbance values for the test materials and untreated samples were then used to estimate the amount of cytokine present in each sample.

[2] = exposed to 50 micrograms of purified urushiol; cited from earlier work
[3] = 4 Hours, Epiderm tissue, 100 μl test material, Urushiol = control lotion 0.05% 2-deoxy-urushiol, Nonylphenol Ethoxylate = control lotion + 0.2% w/v nonyl phenyl ethoxylate

## CCCCCCCCCCCCCCCc1cccc(O)c1O [Urushiol]
IL-1α; [3]
  IL-1α Accumulation in Cell Culture Media: 16.1 ± 5.2 pg/mL
IL-1α; 12 Hours, same test materials
  IL-1α Accumulation in Cell Culture Media: 32.6 ± 6.3 pg/mL
[1]
  Percent Viability (MTT Assay): 88 ± 5%
IL-6; [3]
  IL-6 Accumulation in Cell Culture Media: 1.9 ± 0.4 pg/mL
IL-6; 12 Hours, same test materials
  IL-6 Accumulation in Cell Culture Media: 5.1 ± 0.4 pg/mL
IL-6; 24 Hours, same test materials
  IL-6 Accumulation in Cell Culture Media: 9.4 ± 0.3 pg/mL
IL-6; 48 Hours, same test materials
  IL-6 Accumulation in Cell Culture Media: 16.4 ± 1.4 pg/mL
[2]
  adult Americans who get a rash: 80-90%
